Laboratory results taken from patent EP0318860B1, “Substituted alkylamine derivatives” (BANYU PHARMACEUTICAL CO., LTD., priority 1987, dated 1989).
Where a name gives a salt, the structure may show the parent alone.

These compounds were tested against T1, rat squalene epoxidase (Rattus norvegicus, UniProt P52020) (assay: Squalene epoxidase inhibiting activity (3H-squalene to squalene-2,3-epoxide, solubilized liver microsome fraction)). Conditions: 8 µM 3H-squalene, 37 °C, 30 minutes, read-out: 50 % inhibitory concentration (IC50).
T1 construct: Livers were extracted and homogenized; from tissue; host or cells: liver of SD-strain female rats; microsomes solubilized with 2 % Triton X-100, 105000 x g supernatant
Type: biochemical
Method: The rat squalene epoxidase was prepared by the method described in J. Biol. Chem., vol.
SD-strain female rats were killed by exsanguination. Livers were extracted and homogenized with in the presence of 2 volumes of 0.1M Tris-HCl buffer (pH 7.5). The homogenate was centrifuged at 9750 Xg for 10 minutes. The supernatant fraction was further centrifuged at 105000 Xg for 1 hour. The sediment was washed with 0.1M Tris-HCl buffer (pH 7.5), and then centrifuged at 105000 Xg for 1 hour. The microsomes obtained were suspended in 0.1M Tris-HCl buffer (pH 7.5) so that the amount of proteins was 40 mg/ml, and under ice cooling, the suspension was stirred in the presence of 2 % Triton X-100 to solubilize the enzyme. After the solubilization, the solution was diluted to a Triton X-100 concentration of 0.5 % with 1 mM EDTA and 1 mM dithiothreitol, and centrifuged at 105000 Xg for 1 hour. The resulting supernatant fraction was used in the following test as a squalene epoxidase fraction.
The squalene epoxidase activity was assayed in accordance with the method described in J. Biol. Chem., vol.
Three microliters of a dimethyl sulfoxide solution of a test drug was added to a solution composed of 0.2 ml of the squalene epoxidase fraction prepared in (1) [proteins 0.4 mg, 0.5 % Triton X-100, […] Tris-HCl buffer (pH 7.5)], 100 µM FAD, 1 mM NADPH, 1 mM EDTA and 8 µM ³H-squalene-Tween 80 emulsion to adjust the total amount of the solution to 0.3 ml. The solution was incubated at 37 °C for 30 minutes with shaking. Then, 0.3 ml of a 10 % methanolic potassium hydroxide was added to stop the reaction, and the reaction mixture was left to stand at room temperature for 1 hour. The non-saponified material was extracted with petroleum ether, and the solvent was evaporated under a nitrogen stream. […] The position of the resulting ³H-squalene-2,3-epoxide on TLC was determined using ergosterol acetate as a marker, and the ³H-squalene-2,3-epoxide portion on the TLC was cut off. The TLC strip was immersed in a toluene-type scintillator, and measured by a liquid scintillation counter.

T1 sequence (P52020 whole entry): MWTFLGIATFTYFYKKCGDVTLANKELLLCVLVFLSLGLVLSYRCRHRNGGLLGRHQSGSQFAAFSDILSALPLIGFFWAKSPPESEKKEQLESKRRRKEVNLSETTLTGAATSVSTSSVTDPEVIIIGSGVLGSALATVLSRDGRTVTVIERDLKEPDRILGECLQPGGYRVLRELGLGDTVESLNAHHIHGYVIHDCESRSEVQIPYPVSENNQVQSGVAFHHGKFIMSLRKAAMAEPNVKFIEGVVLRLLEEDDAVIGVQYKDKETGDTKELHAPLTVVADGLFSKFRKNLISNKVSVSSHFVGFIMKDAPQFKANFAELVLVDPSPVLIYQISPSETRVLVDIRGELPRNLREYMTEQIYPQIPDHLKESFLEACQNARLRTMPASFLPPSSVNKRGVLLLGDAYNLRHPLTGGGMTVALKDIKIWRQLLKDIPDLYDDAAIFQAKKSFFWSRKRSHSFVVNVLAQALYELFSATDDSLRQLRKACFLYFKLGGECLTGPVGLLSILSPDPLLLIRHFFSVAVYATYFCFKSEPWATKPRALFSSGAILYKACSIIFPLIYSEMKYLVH

SMILES	IC50
Cc1ccoc1COc1cccc(CN(C)C/C=C/C#CC(C)(C)C)c1 [Compound 82, (E)-N-(6,6-dimethyl-2-hepten-4-ynyl)-N-methyl-[(3-methyl-2-furyl)methyloxy]benzylamine]	0.87 µM
CN(C/C=C/C#CC(C)(C)C)Cc1cccc(OCc2cccc(Cl)c2)c1 [Compound 8, (E)-N-(6,6-dimethyl-2-hepten-4-ynyl)-N-methyl-3-(3-chlorobenzyloxy)benzylamine]	2.9 µM
CC(C)=C(C)COc1cccc(CN(C)C/C=C/C#CC(C)(C)C)c1 [Compound 92, (E)-N-(6,6-dimethyl-2-hepten-4-ynyl)-N-methyl-3-(2,3-dimethyl-2-butenyloxy)benzylamine]	3.3 µM
Cc1ccc(CN(C)C/C=C/C#CC(C)(C)C)cc1OCc1ccccc1 [Compound 28, (E)-(6,6-dimethyl-2-hepten-4-ynyl)-N-methyl-3-benzyloxy-4-methylbenzylamine]	5.6 µM
CCc1ccccc1COc1cccc(CN(C)C/C=C/C#CC(C)(C)C)c1 [Compound 62, (E)-N-(6,6-dimethyl-2-hepten-4-ynyl)-N-methyl-3-(2-ethylbenzyloxy)benzylamine hydrochloride]	0.36 µM
CN(C/C=C/C#CC(C)(C)C)Cc1cccc(CNc2ccccc2)c1 [Compound 104, (E)-N-[6,6-dimethyl-2-hepten-4-ynyl]-N-methyl-3-anilinomethylbenzylamine hydrochloride]	7.7 µM
C#CCN(C/C=C/C#CC(C)(C)C)Cc1cccc(OCc2ccccc2)c1 [Compound 42, (E)-N-(6,6-dimethyl-2-hepten-4-ynyl)-N-propargyl-3-benzyloxybenzylamine]	9.6 µM
CCN(C/C=C/C#CC(C)(C)C)Cc1cccc(OCc2cccc(-c3cnco3)c2)c1 [Compound 120, (E)-N-(6,6-dimethyl-2-hepten-4-ynyl)-N-ethyl-3-[3-(5-oxazolyl)benzyloxy]benzylamine]	0.0027 µM
CN(C/C=C/C#CC(C)(C)C)Cc1cccc(OCc2cccs2)c1 [Compound 86, (E)-N-(6,6-dimethyl-2-hepten-4-ynyl)-N-methyl-3-(2-thienylmethyloxy)benzylamine]	3.3 µM
CN(C/C=C/C#CC(C)(C)C)Cc1cccc(OCc2ccco2)c1 [Compound 34, (E)-N-(6,6-dimethyl-2-hepten-4-ynyl)-N-methyl-3-furfuryloxybenzylamine]	1.7 µM
CC(C)=CCOc1cccc(COc2cccc(CN(C)C/C=C/C#CC(C)(C)C)c2)c1 [Compound 73, (E)-N-(6,6-dimethyl-2-hepten-4-ynyl)-N-methyl-3-[3-(3-methyl-2-butenyloxy)benzyloxy]benzylamine]	2.3 µM
COC(C)(C)C#C/C=C/CN(C)Cc1cccc(OCc2ccccc2)c1 [Compound 126, (E)-N-(6-methoxy-6-methyl-2-hepten-4-ynyl)-N-methyl-3-benzyloxybenzylamine]	2.2 µM
CN(C/C=C/C#CC(C)(C)C)Cc1cccc(OCc2cccc3cccnc23)c1 [Compound 87, (E)-N-(6,6-dimethyl-2-hepten-4-ynyl)-N-methyl-3-(8-quinolylmethyloxy)benzylamine hydrochloride]	3.5 µM
Cc1cccc(COc2cccc(CN(C)C/C=C/C#CC(C)(C)C)c2)c1C [Compound 55, (E)-N-(6,6-dimethyl-2-hepten-4-ynyl)-N-methyl-3-(2,3-dimethylbenzyloxy)benzylamine hydrochloride]	0.6 µM
C=CCN(C/C=C/C#CC(C)(C)C)Cc1cccc(OCc2ccccc2)c1 [Compound 41, (E)-N-allyl-N-(6,6-dimethyl-2-hepten-4-ynyl)-3-benzyloxybenzylamine]	2.1 µM
CC(Oc1cccc(CN(C)C/C=C/C#CC(C)(C)C)c1)c1ccccc1 (stereo not drawn) [Compound 16, (E)-N-(6,6-dimethyl-2-hepten-4-ynyl)-N-methyl-3-(alpha-phenethyloxy)benzylamine]	1.4 µM
CCN(C/C=C/C#CC(C)(C)C)Cc1cccc(OCc2cccc(-c3cncs3)c2)c1 [Compound 121, (E)-N-(6,6-dimethyl-2-hepten-4-ynyl)-N-ethyl-3-[3-(5-thiazolyl)benzyloxy]benzylamine]	0.026 µM
C=C(C)Cc1cccc(COc2cccc(CN(C)C/C=C/C#CC(C)(C)C)c2)c1 [Compound 71, (E)-N-(6,6-dimethyl-2-hepten-4-ynyl)-N-methyl-3-[3-(2-methyl-2-propenyl)benzyloxy]benzylamine]	0.54 µM
CN(C/C=C/C#CC(C)(C)C)Cc1cccc(OCc2ccccc2C(F)(F)F)c1 [Compound 68, (E)-N-(6,6-dimethyl-2-hepten-4-ynyl)-N-methyl-3-(2-trifluoromethylbenzyloxy)benzylamine hydrochloride]	1.2 µM
CN(C/C=C/C#CC(C)(C)C)Cc1cccc(OCc2ccccc2C#N)c1 [Compound 67, (E)-N-(6,6-dimethyl-2-hepten-4-ynyl)-N-methyl-3-(2-cyanobenzyloxy)benzylamine hydrochloride]	2.4 µM
CN(C/C=C/C#CC(C)(C)C)Cc1ccc(F)c(OCc2ccccc2)c1 [Compound 49, (E)-N-(6,6-dimethyl-2-hepten-4-ynyl)-N-methyl-3-benzyloxy-4-fluorobenzylamine]	4.9 µM
Cc1ccccc1COc1cccc(CN(C)C/C=C/C#CC2(C)CC2)c1 [Compound 131, (E)-N-methyl-N-[5-(1-methylcyclopropyl)-2-penten-4-ynyl]-3-(2-methylbenzyloxy)benzylamine]	1 µM
COc1cccc(COc2cccc(CN(C)C/C=C/C#CC(C)(C)C)c2)c1 [Compound 52, (E)-N-(6,6-dimethyl-2-hepten-4-ynyl)-N-methyl-3-(3-methoxybenzyloxy)benzylamine hydrochloride]	1.4 µM
Cc1ccccc1COc1cccc(CN(C)C/C=C/C=C/C(C)(C)C)c1 [Compound 132, (E),(E)-N-(6,6-dimethyl-2,4-heptadienyl)-N-methyl-3-(2-methylbenzyloxy)benzylamine]	5.4 µM
CN(C/C=C/C#CC(C)(C)C)Cc1cccc(OCc2cccc(C=O)c2)c1 [Compound 95, (E)-N-(6,6-dimethyl-2-hepten-4-ynyl)-N-methyl-3-(3-formylbenzyloxy)benzylamine]	6.8 µM
Cc1occc1COc1cccc(CN(C)C/C=C/C#CC(C)(C)C)c1 [Compound 83, (E)-N-(6,6-dimethyl-2-hepten-4-ynyl)-N-methyl-3-[(2-methyl-3-furyl)methyloxy]benzylamine]	1.9 µM
CN(C/C=C/C#CC(C)(C)C)Cc1ccc(/C=C/c2ccccc2)o1 [Compound 115, N-[(E)-6,6-dimethyl-2-hepten-4-ynyl]-N-methyl-5-[(E)-styryl]furfurylamine]	0.27 µM
CCCN(C/C=C/C#CC(C)(C)C)Cc1cccc(OCc2cccc(-c3cnco3)c2)c1 [Compound 123, (E)-N-(6,6-dimethyl-2-hepten-4-ynyl)-N-propyl-3-[3-(5-oxazolyl)benzyloxy]benzylamine]	0.034 µM
CC(C)=Cc1cccc(COc2cccc(CN(C)C/C=C/C#CC(C)(C)C)c2)c1 [Compound 70, (E)-N-(6,6-dimethyl-2-hepten-4-ynyl)-N-methyl-3-[3-(2-methyl-1-propenyl)benzyloxy]benzylamine]	3.1 µM
CN(C/C=C/C#CC(C)(C)C)Cc1cccc(OCc2cccc(O)c2)c1 [Compound 65, (E)-N-(6,6-dimethyl-2-hepten-4-ynyl)-N-methyl-3-(3-hydroxybenzyloxy)benzylamine]	4.6 µM
